Reference: patent US8093209B2, “Methods of suppressing microglial activation and systemic inflammatory responses” (Cognosci, Incorporated, priority 2002, dated 2012)
“Also recorded” adds a separate entry of the source.

What was measured:
[1] = system: thioglycollate-elicited peritoneal macrophages; test: Competition between apoE and apoE mimetic peptide: [Ca2+]i on sequential stimulation; type: cell-based, mouse
Protocol: Fura-2/AM loaded macrophages were incubated overnight, plated on glass cover slips, stimulated with one ligand, and changes in [Ca^2+]i quantified. Cells were then stimulated with second ligand and Ca^2+ measurements repeated.

[2] = system: thioglycollate-elicited peritoneal macrophages; test: [Ca2+]i in Fura-2/AM treated single macrophages, digital imaging microscopy (Example 10); type: cell-based, mouse; settings: for increase in [Ca2+]i levels compared to buffer: macrophage
Protocol: (§1) Macrophage Harvesting. All experiments involving animals were first approved by the Duke Institutional Animal Care and Use Committee. Pathogen-free female C57BL/6 mice and ApoE deficient mice previously backcrossed 10 times to the C57BL/6 strain were obtained from the Jackson Laboratory (Bar Harbor, Me.). Thioglycollate-elicited peritoneal macrophages were harvested by peritoneal lavage using 10 ml of ice-cold Hanks' balanced salt solution containing 10 mM HEPES and 3.5 mM NaHCO3 (HHBSS), pH 7.4. The macrophages were pelleted by centrifugation at 4° C. at ˜800×g for 10 min and resuspended in RPMI 1640 media supplemented with 25 mM HEPES, 12.5 U/ml penicillin, 6.5 mg/ml streptomycin, and 5% fetal bovine serum.
Measurement of [Ca^2+]i in apoE and peptide treated macrophage. Changes in [Ca^2+]i levels in Fura-2/AM treated single cells were quantified using digital imaging microscopy in accordance with known techniques. Macrophages were plated on glass coverslips sitting in 35 mm Petri dishes at a density of 1.5×10^5 cells/cm^2, and allowed to adhere for 2 h in a humidified 5% CO2 incubator at 37° C. The non-adherent cells were aspirated and the monolayers were washed twice with HHBSS. 4 μM Fura-2/AM was incubated with the cells for thirty min in the dark at room temperature and [Ca^2+]i was subsequently measured using a digital imaging microscope in accordance with known techniques. […] To determine if signaling resulted from ligation of the ligand to LRP, cells were preincubated with a 1000-fold molar excess of RAP or 10 mM NiCl2, both of which inhibit ligand binding to LRP, for 5 min prior to stimulation with apoE or peptide. In experiments in which the involvement of a G protein was assessed, monolayers were incubated with 1 μg/ml pertussis toxin for 12 h at 37° C. and Ca^2+ measurements were made as stated above.

[3] = system: primary rat neuronal/glial cultures exposed to NMDA; test: NMDA-induced LDH release in primary neuronal-glial cultures; type: cell-based; settings: peptide 0.3-10 μM, 100 μM NMDA
Protocol: (§2) Primary neuronal-glial cultures were prepared from fetal Sprague-Dawley rat brains at 18 days of gestation as previously described (Pearlstein et al., 1998). Brains were harvested from 10-15 pups and dissected to separate cortex from meninges and subcortical structures using anatomical landmarks. Cortices were pooled and minced into 2 mm^3 pieces in a buffered salt solution supplemented with 20 mM HEPES buffer, pH 7.4, containing 0.25% trypsin. The tissue was incubated for 20 minutes at 37° C. in a 5% CO2/95% room air atmosphere, and washed twice with ice-cold, glutamine-free minimum essential medium (MEM; Life Technologies) containing 15 mM glucose, 5% fetal bovine serum (GIBCO), 5% horse serum (GIBCO), and 1% DNase-I (Sigma Chemical Co., St. Louis, Mo., USA). Tissue pieces were dissociated by trituration through a fire-polished 9-inch Pasteur pipette (I.D.=0.7 mm). The resultant suspension was centrifuged at 50×g for 10 min, the supernatant discarded, and the pellet resuspended in growth medium (MEM supplemented with 15 mM glucose, 5% fetal bovine serum, and 5% horse serum). The dissociated cells were plated to achieve a confluent monolayer using 4×10^5 cells per well in poly-D-lysine coated, 24-well culture plates (Falcon 3047; Becton Dickinson Co., Lincoln Park, N.J., USA). Cultures were maintained undisturbed at 37° C. in a humidified 5% CO2/95% room air atmosphere for 13-16 days prior to use.
Mature cultures (13-16 days in vitro) were washed with Mg^2+-free buffered salt solution (BSS) containing 20 mM HEPES buffer (pH7.4) and 1.8 mM CaCl2, prior to the addition of NMDA. Following NMDA exposure, cultures were maintained for 30 minutes at 37° C. in a 5% CO2/95% air atmosphere. The medium containing NMDA was then removed and replaced with MEM supplemented with 20 mM glucose. The cultures were returned to the incubator for 24 h. In all experiments, cellular damage was assessed at 24 h after exposure to NMDA by measurement of the activity of lactate dehydrogenase (LDH) released into the medium as described below. The non-competitive NMDA receptor antagonist, MK-801 (Tocris Cookson Ins., St. Louis, Mo.) at a concentration of 10 μM was used as a positive control. Preliminary dose-response studies were performed to determine the concentration of NMDA (100 μM) required to effect a near-maximal LDH release (ED90) as used in the present study.
The effect of human recombinant apoE (Panverra, Madison, Wis.) on 100 μM NMDA-induced LDH release was assessed and the dose-response curve was obtained (apoE: 0.1-10 μM final concentration). ApoE3, the most common human isoform, was added to the cultures 30 minutes prior to and removed following NMDA exposure. The effect of apoE peptide (133-149) on NMDA (100 μM or 300 μM)-induced LDH release was next assessed and the dose-response curve was obtained in a separate set of sister cultures that were simultaneously treated under one of the following conditions: (1) various doses of peptide (0.3 μM, 1 μM, 3 μM, 6 μM, 10 μM final concentration) were added to the culture immediately prior to and removed at the end of NMDA exposure; (2) no peptide, NMDA exposure; (3) no peptide, no NMDA exposure; (4) no peptide, NMDA exposure with 10 μM MK-801 for 30 minutes. The effect of a scrambled control peptide on NMDA-induced LDH release was similarly assessed.
The effect of time of administration of apoE peptide (133-149) on NMDA-induced LDH release was assessed in a separate set of sister cultures that were simultaneously treated under one of following conditions: (1) peptide was added to the culture medium 24 h prior to and removed immediately before exposure to NMDA; (2) peptide was added immediately prior to and removed at the end of the NMDA exposure; (3) peptide was added immediately following the 30 minutes NMDA exposure; (4) no peptide, NMDA exposure; (5) no peptide, no NMDA exposure. […]

[4] = system: primary rat neuronal/glial cultures exposed to NMDA; test: NMDA-induced 45Ca uptake by primary neuronal-glial cultures; type: cell-based; settings: 6 μM peptide, 100 μM NMDA
Protocol: as §2
Cellular calcium uptake from the extracellular space was assessed using ^45CaCl2 (American Radiolabeled Chemicals, St. Louis, Mo.). After washing the cultures with Mg^2+-free BSS containing 20 mM HEPES buffer, 6 μM peptide or 10 μM MK-801 was added to each well prior to and removed at the end of 100 μM NMDA exposure. ^45Ca (0.28 μCi/ml, 0.9 μCi/well) was added to each well immediately prior to NMDA exposure. The cultures were returned to the incubator and maintained at 37° C. Twenty minutes later, the exposure medium was removed and each well was washed 3 times with ice-cold Mg^2+-free BSS containing 20 mM HEPES buffer. The cells were subsequently lysed by addition of 0.2% sodium dodecyl sulfate (SDS). An aliquot from each well was added to a liquid scintillation vial containing 10 ml Cytoscint™ (ICN, Biochemical Research Product, CA) and radioactivity was determined by scintillation counting and normalized to cell count.

[5] = system: thioglycollate-elicited peritoneal macrophages; test: IP3 formation in myo-[2-3H]inositol-labeled macrophages (Example 10); type: cell-based, mouse
Protocol: as §1, with “serum. Cell viability was determined by the trypan blue exclusion method and was consistently greater then 95%.” for “serum.”
Measurement of IP3 in apoE treated macrophage and effect of pertussis toxin. The formation of IP3 in myo-[2-^3H]inositol-labeled macrophages under various experimental conditions was quantified in accordance with known techniques. Macrophage were plated in 6 well plates (4×10^6 cells/well) and allowed to adhere at 37° C. for 2 h in a humidified 5% CO2 incubator. Medium was aspirated from the monolayers and RPMI 1640 medium containing 0.25% BSA and myo-[2-^3H]inositol (specific activity 10-20 Ci/mmol) was added to each well. […] Radioactivity was determined by placing aliquots in a liquid scintillation counter to determine radioactivity. […] The effect on IP3 formation was measured as described above.

Row | Substance | [Ca2+]i response on repeated or sequential ligand exposure (desensitization) [1] | increase in [Ca2+]i levels compared to buffer [2] | protection against NMDA toxicity (LDH release), dose response [3] | NMDA-induced calcium influx compared to NMDA alone [4] | cells examined showing increase in [Ca2+]i [2] | concentration dependence of [Ca2+]i increase [2] | [Ca2+]i level in treated cells, typical experiment ([2]; unstimulated cells 95.33±7.37 nM) | increase in IP3 levels [5] | concentration dependence of IP3 increase ([5]; stimulated 60 s)
1 | scrambled control peptide: Example 10: scrambled control of identical size and amino acid composition to the 20 amino acid ApoE mimetic peptide (Ac-LARKLRSRLVHLRLKLR-NH2) [reference compound] | No desensitization in calcium response | no effect | no protection was observed | no effect on calcium influx |  |  |  |  | 
2 | apoE: Example 10: human recombinant apoE2 obtained commercially from Panvera Corp | marked attenuation in [Ca^2+]i suggesting tachyphylaxis; also recorded: loss of [Ca^2+]i response to apoE addition following initial exposure to peptide | 2-4 fold |  |  | 70-80% | dose-dependent | 180.25 ± 14.57 nM | 1.5-2.0 fold | dose-dependent
